Here are results for 16 molecules from publication PMC6332334, “3-H-[1,2]Dithiole as a New Anti-Trypanosoma cruzi Chemotype: Biological and Mechanism of Action Studies” (Molecules, 2015).

Assay [1] deals with T1, Trypanosoma cruzi triosephosphate isomerase (TcTIM) (Trypanosoma cruzi, UniProt P52270).
T1 construct: made in house; host or cells: Escherichia coli
The assay is described as follows: Inhibition of enzymatic activity of TcTIM. The settings on record: for IC50: isolated enzyme, 2 h incubation at 36 °C; for inhibition at 25 µM: read-out: TcTIM % Inhib25; for inhibition at 200 µM: read-out: TcTIM % Inhib200. Format: biochemical. How it is done: In order to investigate if the 3H-[1,2]dithioles inhibit TcTIM, we initially tested the inhibitory capacity of the compounds at a concentration of 200 μM and then at 25 μM.
Expression and purification of protein: TcTIM was expressed in Escherichia coli and purified as described in the literature. After purification, the enzyme, dissolved in 100 mM triethanolamine, 10 mM EDTA and 1 mM dithiothreitol (pH 8), was precipitated with ammonium sulfate (75% saturation) and stored at 4 °C. Before use, extensive dialysis against 100 mM triethanolamine/10 mM EDTA (pH 7.4) was performed. Protein concentration was determined by absorbance at 280 nm (ε = 36,440 M^−1·cm^−1).
Enzymatic activity assays. Enzymatic activity was determined following the conversion of glyceraldehyde 3-phosphate into dihydroxyacetone phosphate. The decrease in absorbance at 340 nm was followed in a multicell Cary spectrophotometer at 25 °C. The reaction mixture (1 mL, pH 7.4) contained 100 mM triethanolamine, 10 mM EDTA, 0.2 mM NADH, 1 mM glyceraldehyde 3-phosphate, and 0.9 units of α-glycerol phosphate dehydrogenase. The reaction was initiated by addition of 5 ng/mL of the TcTIM.
For inactivation studies, TcTIM was incubated at a concentration of 5 mg/mL in a buffer containing 100 mM triethanolamine, 10 mM EDTA, pH 7.4 and 10% of DMSO at 36 °C. The mixture also contained the compounds at the indicated concentrations. Compounds were dissolved in DMSO. After 2 h, […] was withdrawn and added to 1 mL of reaction mixture for the activity assay. None of the molecules tested here affected the activity of α-glycerol phosphate dehydrogenase, the enzyme used for trapping the product.
The IC50 value was taken as the concentration of drug needed to reduce the enzymatic activity to 50%. The experiments were performed in triplicate.

Assay [2] has as its target T2, cruzipain (Trypanosoma cruzi, UniProt P25779).
T2 construct: endogenous in cells; host or cells: T. cruzi epimastigotes, Tulahuen 2 strain
Description: Inhibition of T. cruzi cruzipain (Z-Phe-Arg-AMC fluorogenic substrate). Format: biochemical. To be noted: read-out: Cruzipain % Inhib100. As for the experimental part: Initially, we tested the dithioles as inhibitors of the protease cruzipain from T. cruzi at a concentration of 100 μM.
Cruzipain was purified to homogeneity from epimastigotes of the Tulahuen 2 strain by ConA-Sepharose affinity chromatography, as previously described. Cruzipain (2.5 μM ε = 58,285 M^−1·cm^−1) was incubated in 50 mM acetate buffer pH 5.5 with 50 mM DTT and 100 μM inhibitor was added, shaking the solution for 15 min at 27 °C. The derivatives were added diluted in DMSO, and the controls contained the same solvent concentration. The concentration of DMSO never exceeded 1% in the reaction medium. E-64 was used as a positive control of inhibition. Then, the fluorogenic substrate Z-Phe-Arg-AMC (100 μM) was added and the fluorescence was measured during 10 min at intervals of 3 s (excitation at 350 nm and emission at 460 nm) using a Varioskan Flash Spectrophotometer. From the slope of the negative control, we calculated the total (100%) enzyme activity, while the slopes obtained in the presence of the compounds yielded the percentage of remaining enzyme activity. The percentage of enzyme inhibition was determined as […]. The experiments were done in duplicate.

In assay [3] the test system is epimastigotes of T. cruzi (Tulahuen 2 strain). Description: Anti-T. cruzi test in vitro (epimastigote growth inhibition). Format: cell-based, Trypanosoma cruzi. To be noted: for IC50: Trypanosoma cruzi, read-out: IC50 against T. cruzi; for SI (selectivity index): macrophages (J774.1) vs T. cruzi epimastigotes. As for the experimental part: (§1) To evaluate the anti-trypanosomal activity of the synthesized 3H-[1,2]dithioles we used T. cruzi, Tulahuen 2 strain (discrete typing unit, DTU, TcVI [18]) in the epimastigote form. […] To establish the selectivity of the compounds against the parasite, unspecific cytotoxicity against mammalian cells (J774.1 murine macrophages) was studied for the most relevant derivatives. The selectivity indexes (SI) were also determined (Table 1).
We used epimastigotes of the Tulahuen 2 strain (DTU, Tc VI) growing in an axenic milieu (BHI-Tryptose). Cells from a 5–7-day-old culture were inoculated in fresh culture milieu to give an initial concentration of 1 × 10^6 cells/mL. The absorbance at 600 nm of the cells in culture was measured every day. At day 5, the milieu was inoculated with different quantities of the compounds from a stock solution in DMSO (DMSO concentration in the culture milieu never exceeded 0.4%). The control was made in the presence of 0.4% DMSO and in the absence of compounds. […] At day 5, the absorbance of the culture was measured and related to the control. The IC50 value was taken as the concentration of drug needed to reduce the absorbance ratio to 50%.

Assay [4] concerns J774.1 murine macrophages. The assay is described as follows: Unspecific in vitro cytotoxicity of mammalian cells (MTT). Format: cell-based. The settings on record: Mus musculus, 48 h exposure, read-out: IC50 against Macrophages. As for the experimental part: as §1
J774.1 murine macrophage cells (ATCC, Manassas, VA, USA) were grown in DMEM culture milieu containing 4 mM L-glutamine and supplemented with 10% heat-inactivated fetal calf serum. […] Afterwards, cells were exposed for 48 h to the compounds (25–400 μM) or vehicle for control (0.4% DMSO), and additional controls (cells in medium) were used in each test. Cell viability was then assessed by measuring the mitochondria-dependent reduction of MTT (3-(4,5-dimethylthiazol-2-yl)-2,5-diphenyltetrazolium bromide) to formazan. For this purpose, MTT in sterile PBS (0.2% glucose) pH 7.4 was added to the macrophages to achieve a final concentration of 0.1 mg/mL and the cells were incubated at 37 °C for 3 h. After removing the medium, formazan crystals were dissolved in 180 μL of DMSO and 20 μL of MTT buffer (0.1 M glycine, 0.1 M NaCl, 0.5 mM EDTA, pH 10.5) and the absorbance at 560 nm was measured. The IC50 was defined as the drug concentration at which 50% of the cells were viable, relative to the control (no drug added), and was determined by analysis using OriginLab8.5® sigmoidal regression (% of viable cells vs. logarithm of the compound concentration). Samples were performed in triplicate.

The target of assay [5] is T2, cruzipain. The assay is described as follows: Inhibition of T. cruzi cruzipain (Z-Phe-Arg-AMC fluorogenic substrate). The assay is classed as biochemical. The settings on record: isolated enzyme.
The mark [6] stands for this setting: percentage of enzymatic inhibition at 25 μM.
[7] abbreviates: percentage of enzymatic inhibition at 200 μM.
[8] abbreviates: percentage of enzymatic inhibition at 100 μM.
Where [9] appears, read: epimastigotes, Tulahuen 2 strain, triplicate.

Like-named read-outs stand apart in the source and are kept apart here. Bounds are passed on as bounds.

T2 sequence (P25779 123-467): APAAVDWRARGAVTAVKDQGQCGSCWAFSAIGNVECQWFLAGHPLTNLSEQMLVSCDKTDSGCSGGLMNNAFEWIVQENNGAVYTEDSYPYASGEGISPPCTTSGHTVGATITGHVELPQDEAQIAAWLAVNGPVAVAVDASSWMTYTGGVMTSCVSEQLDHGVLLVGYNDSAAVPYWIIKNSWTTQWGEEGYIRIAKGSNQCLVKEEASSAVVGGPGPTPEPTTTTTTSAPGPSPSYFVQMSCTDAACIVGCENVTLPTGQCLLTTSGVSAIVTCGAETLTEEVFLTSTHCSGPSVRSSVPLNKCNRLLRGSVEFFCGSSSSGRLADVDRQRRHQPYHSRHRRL
T1 sequence (P52270 whole entry): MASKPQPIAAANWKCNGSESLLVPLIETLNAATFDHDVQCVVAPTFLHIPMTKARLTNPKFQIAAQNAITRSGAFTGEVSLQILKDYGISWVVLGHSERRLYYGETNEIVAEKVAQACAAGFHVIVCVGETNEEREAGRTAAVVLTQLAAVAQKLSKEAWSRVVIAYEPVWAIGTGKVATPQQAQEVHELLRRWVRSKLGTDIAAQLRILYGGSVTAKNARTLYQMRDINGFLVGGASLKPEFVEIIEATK

For `O=C(C[S+]=c1cc(-c2ccc(O)cc2)ss1)c1ccc2ccccc2c1` [Derivative 18], the 50% inhibitory concentration (IC50) in assay [1] was 11.03 ± 0.03 µM; in assay [3] (setting [9]), more than 25 µM. In addition, in assay [1] (setting [6]), the inhibition at 25 µM worked out at 75 ± 0.3%. Besides, in assay [1] (setting [7]), the inhibition at 200 µM came to 70%. For the same molecule, at cruzipain [2] (setting [8]), the inhibition at 100 µM came out at 77.1 ± 0.1%.
Turning to `O=C(Oc1ccc(-c2cc(=S)ss2)cc1)c1ccc(/C=C/C(=O)c2ccccc2O)cc1` [Derivative 9], the inhibition at 200 µM in assay [1] (setting [7]) is 50%. Further, on cruzipain [2] (setting [8]), the inhibition at 100 µM amounted to 77.9 ± 0.6%. For the same molecule, the IC50 worked out at 63 ± 2 µM in assay [4] and 25 ± 0.5 µM in assay [3] (setting [9]). Besides, the “SI (selectivity index)” value in assay [3] worked out at 2.5.
For the molecule `COc1ccc(C2=C/C(=C(\SCC(=O)c3ccc4ccccc4c3)C(=O)c3ccc4ccccc4c3)SS2)cc1` [Derivative 17], the inhibition at 25 µM in assay [1] (setting [6]) came out at 52 ± 2.5%. Moreover, the inhibition at 200 µM in assay [1] (setting [7]) was determined as 81%. Moreover, the inhibition at 100 µM at cruzipain [2] (setting [8]) was 82.6 ± 0.6%. Moreover, the IC50 in assay [3] (setting [9]) was more than 25 µM.
Regarding `COc1ccc(-c2cc(=[S+]CC(=O)c3ccc4ccccc4c3)ss2)cc1` [Derivative 21], the inhibition at 200 µM in assay [1] (setting [7]) is 65%. The IC50 on cruzipain [5] is 17.7 ± 3.9 µM; in assay [3] (setting [9]), more than 25 µM. Also, the inhibition at 100 µM at cruzipain [2] (setting [8]) was found to be 90.2 ± 0.6%.
For the molecule `CC(=O)COc1ccc(-c2cc(=S)ss2)cc1` [Derivative 10], in assay [1] (setting [6]), the inhibition at 25 µM worked out at 61 ± 1%. For the same molecule, in assay [1] (setting [7]), the inhibition at 200 µM was 70%. Also, at cruzipain [2] (setting [8]), the inhibition at 100 µM came out at 73.9 ± 0.1%. The half-inhibitory concentration (IC50) in assay [3] (setting [9]) was more than 25 µM.
Turning to `O=C(/C=C/c1ccc(C(=O)Oc2ccc(-c3cc(=S)ss3)cc2)cc1)c1ccccc1` [Derivative 8], the inhibition at 100 µM on cruzipain [2] (setting [8]) was determined as 58 ± 0.1%. The IC50 in assay [3] (setting [9]) is more than 25 µM.
With `O=C(/C=C/c1ccccc1)Oc1ccc(-c2cc(=S)ss2)cc1` [Derivative 7], in assay [1] (setting [7]), the inhibition at 200 µM was determined as 14%. Moreover, the inhibition at 100 µM on cruzipain [2] (setting [8]) was 78.4 ± 0.6%. Besides, the IC50 in assay [3] (setting [9]) is more than 25 µM.
As to `Oc1ccc(-c2cc(=S)ss2)cc1` [Derivative 6], in assay [1] (setting [6]), the inhibition at 25 µM stood at 35 ± 3%. The inhibition at 200 µM in assay [1] (setting [7]) turned out to be 71%. For the same molecule, on cruzipain [2] (setting [8]), the inhibition at 100 µM is 59.3 ± 0.3%. Also, the 50% inhibitory concentration (IC50) in assay [4] came to 51 ± 2 µM; in assay [3] (setting [9]) it was 25 ± 1 µM. Moreover, in assay [3], the “SI (selectivity index)” value is 2.0.
In the case of `COc1ccc(-c2cc(=S)ss2)cc1` [Derivative 5], the IC50 in assay [1] is 1.2 ± 0.05 µM; on cruzipain [5] it was 4 ± 2 µM; in assay [3] (setting [9]) it was more than 25 µM. In addition, the inhibition at 25 µM in assay [1] (setting [6]) was determined as 80 ± 2.3%. The inhibition at 200 µM in assay [1] (setting [7]) came to 86%. At cruzipain [2] (setting [8]), the inhibition at 100 µM was 89 ± 0.5%. Also, in assay [3] (setting [9]), the “IC50 against T. cruzi” value was “inactive”.
In the case of `O=C(COc1ccc(-c2cc(=S)ss2)cc1)c1ccc2ccccc2c1` [Derivative 12], the “TcTIM % Inhib25” value in assay [1] (setting [6]) is recorded as “ni ^d”. Moreover, the inhibition at 200 µM in assay [1] (setting [7]) came out at 70%. In addition, the IC50 against cruzipain [5] is 21.6 ± 6.1 µM; in assay [3] (setting [9]) it was more than 25 µM. Also, the inhibition at 100 µM on cruzipain [2] (setting [8]) is 91.5 ± 0.6%.
With `O=C(Cc1ccccc1)Oc1ccc(-c2cc(=S)ss2)cc1` [Derivative 1], in assay [1], the inhibition at 25 µM came out at 33 ± 1.9% and the inhibition at 200 µM turned out to be 77%. The inhibition at 100 µM on cruzipain [2] came out at 21.3 ± 0.3%. The IC50 in assay [3] (TULAHUEN) is more than 25 µM.
As to `COc1ccc(C2=C/C(=C(\SCC(=O)c3ccccc3)C(=O)c3ccccc3)SS2)cc1` [Derivative 16], the IC50 in assay [1] was 7.53 ± 0.1 µM; in assay [3] (setting [9]) it was more than 25 µM. Also, the inhibition at 25 µM in assay [1] (setting [6]) came out at 63 ± 0.1%. In assay [1] (setting [7]), the inhibition at 200 µM was 77%. The inhibition at 100 µM at cruzipain [2] (setting [8]) was found to be 62.3 ± 0.3%.
Consider `O=C(COc1ccc(-c2cc(=S)ss2)cc1)c1ccccc1` [Derivative 11], for which the IC50 is 17.1 ± 3.6 µM at cruzipain [5] and more than 25 µM in assay [3] (setting [9]). The inhibition at 100 µM at cruzipain [2] (setting [8]) was 96.3 ± 0.7%.
For `COc1ccc(-c2cc(=[S+]CC(=O)c3ccccc3)ss2)cc1` [Derivative 20], the inhibition at 100 µM at cruzipain [2] (setting [8]) was 72 ± 0.1%. For the same molecule, the IC50 in assay [3] (setting [9]) was more than 25 µM.
On to `O=C(CS/C(C(=O)c1ccccc1)=C1\C=C(c2ccc(O)cc2)SS1)c1ccccc1` [Derivative 13], for which the IC50 in assay [1] was 3.35 ± 0.14 µM; in assay [4], 34 ± 0.5 µM; in assay [3] (setting [9]) it was 5.5 ± 0.9 µM. The inhibition at 25 µM in assay [1] (setting [6]) came out at 75 ± 6%. In assay [1] (setting [7]), the inhibition at 200 µM was 86%. The inhibition at 100 µM on cruzipain [2] (setting [8]) is 61 ± 0.3%. In addition, in assay [3], the “SI (selectivity index)” value is listed as 6.2.
Regarding `COc1ccc(-c2cc(=[S+]CC(C)=O)ss2)cc1` [Derivative 19], the 50% inhibitory concentration (IC50) is 3.26 ± 0.05 µM in assay [1], 11.3 ± 0.6 µM on cruzipain [5] and more than 25 µM in assay [3] (setting [9]). Besides, the inhibition at 25 µM in assay [1] (setting [6]) worked out at 73 ± 3.2%. Also, the inhibition at 200 µM in assay [1] (setting [7]) was 95%. In addition, the inhibition at 100 µM at cruzipain [2] (setting [8]) was 90.5 ± 0.7%. Besides, the “IC50 against T. cruzi” value in assay [3] (setting [9]) is “inactive”.

The term IC50 denotes the point on the concentration scale where inhibition reaches its midpoint.
